Laboratory results reported in US10844080B2, “Compositions and methods for inhibiting arginase activity” (CALITHERA BIOSCIENCES, INC., priority 2015, dated 2020).

Tested on: Lewis Lung Carcinoma cells
Experiment: Lewis Lung Carcinoma efficacy study
Assay type: in vivo
Conditions: single agent, dosed orally twice daily at 50, 100 or 200 mg/kg; female C57.Bl/6 mice implanted subcutaneously with Lewis Lung Carcinoma cells; relative to control
Method: Female C57.Bl/6 mice (n=40) were implanted subcutaneously with 1×10^6 Lewis Lung Carcinoma cells suspended in PBS. The day following implantation, mice were randomized into 4 groups of n=10 mice to receive the following treatments dosed orally twice daily until study end: 1) Vehicle (water); 2) Compound 10 at 50 mg/kg formulated in water; 3) Compound 10 at 100 mg/kg formulated in water; or 4) Compound 10 at 200 mg/kg formulated in water. Tumors were measured three times per week with digital calipers and tumor volumes calculated with the following formula: tumor volume (mm^3)=(a×b^2/2) where ‘b’ is the smallest diameter and ‘a’ is the largest perpendicular diameter. ***P-value<0.001, ****P-value<0.0001 (Two-sided T-test).

C[C@H](N)C(=O)N1C[C@H](CCCB(O)O)[C@](N)(C(=O)O)C1 [Compound 10, (3R,4S)-3-amino-1-((S)-2-aminopropanoyl)-4-(3-boronopropyl)pyrrolidine-3-carboxylic acid]
tumor volume over time (tumor growth): slows tumor growth relative to control
